Results reported in US12054498B2, “Heteroaromatic macrocyclic ether chemotherapeutic agents” (Nuvalent, Inc., priority 2020, dated 2024).

Key:
[1] = molecular target: T1, Ba/F3 cells CD74-ROS1 wild-type (wt) (Homo sapiens, UniProt P08922); test: Ba/F3 cell proliferation assay, CD74-ROS1 wild-type; assay type: cell-based; conditions: 72 hours, CellTiter-Glo
T1 construct: fusion of the C-terminus of ROS1 with the N-terminus of various partner proteins; host or cells: Ba/F3 (RIKEN), retroviral pMSCV-puro; the other entry of the earlier key: CD74 (P04233, HLA class II histocompatibility antigen gamma chain)
T1 sequence (P08922 1883-2347 limits assumed): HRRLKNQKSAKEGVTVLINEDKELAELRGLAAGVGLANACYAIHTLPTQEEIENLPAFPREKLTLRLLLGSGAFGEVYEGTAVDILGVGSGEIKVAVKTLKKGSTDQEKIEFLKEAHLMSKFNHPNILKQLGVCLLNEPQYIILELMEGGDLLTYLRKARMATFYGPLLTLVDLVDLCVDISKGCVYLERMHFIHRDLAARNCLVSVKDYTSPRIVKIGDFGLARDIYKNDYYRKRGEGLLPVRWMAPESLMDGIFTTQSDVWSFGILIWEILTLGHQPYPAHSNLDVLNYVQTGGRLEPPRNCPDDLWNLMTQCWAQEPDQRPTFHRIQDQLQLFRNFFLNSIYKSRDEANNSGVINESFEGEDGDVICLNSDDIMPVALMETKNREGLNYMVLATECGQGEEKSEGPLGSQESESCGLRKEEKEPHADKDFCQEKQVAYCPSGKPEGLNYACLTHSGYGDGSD
How it was run: (§1)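 Viability read by CellTiter-Glo luminescence after 72 h exposure to 3-fold serial compound dilutions, four-parameter logistic fitting giving IC50.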

Ba/F3 cells TPM3-TRKA = molecular target: T2, Ba/F3 cells TPM3-TRKA (Homo sapiens, UniProt P04629); test: Ba/F3 cell proliferation assay, TPM3-TRKA; assay type: cell-based; conditions: 72 hours, CellTiter-Glo, read-out: TPM3-NTRK1-wt IC50
T2 construct: host or cells: Ba/F3 (RIKEN), retroviral pMSCV-puro; the other entry of the earlier key: TPM3 (P06753, Tropomyosin alpha-3 chain)
T2 sequence (P04629 510-796 limits assumed): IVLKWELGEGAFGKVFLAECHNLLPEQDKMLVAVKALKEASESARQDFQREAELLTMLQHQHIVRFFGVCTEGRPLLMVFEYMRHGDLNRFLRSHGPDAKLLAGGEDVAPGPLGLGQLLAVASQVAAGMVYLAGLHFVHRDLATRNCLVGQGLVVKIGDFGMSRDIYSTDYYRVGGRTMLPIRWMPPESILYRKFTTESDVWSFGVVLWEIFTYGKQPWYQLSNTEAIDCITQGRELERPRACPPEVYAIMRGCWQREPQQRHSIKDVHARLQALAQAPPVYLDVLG
How it was run: (§2)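 IL-3-independent Ba/F3 lines stably expressing the fusion kinase (retroviral, puromycin-selected), 1,000 cells/well, treated with 3-fold compound dilutions for 72 h. Viability by CellTiter-Glo luminescence; IC50 from four-parameter logistic fit of percent inhibition.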

ALK L1196M/G1202R = molecular target: T3, ALK L1196M/G1202R (Homo sapiens, UniProt Q9UM73, G1202R/L1196M); test: Biochemical kinase assay, ALK L1196M/G1202R kinase domain; conditions: apparent inhibitory constant, Morrison equation; ATP 2 mM in substrate solution; read-out: ALK-L1196M-G1202R Ki^app
T3 construct: purchased SignalChem A19-12NG
T3 sequence (Q9UM73 1116-1392 L1196M/G1202R limits assumed): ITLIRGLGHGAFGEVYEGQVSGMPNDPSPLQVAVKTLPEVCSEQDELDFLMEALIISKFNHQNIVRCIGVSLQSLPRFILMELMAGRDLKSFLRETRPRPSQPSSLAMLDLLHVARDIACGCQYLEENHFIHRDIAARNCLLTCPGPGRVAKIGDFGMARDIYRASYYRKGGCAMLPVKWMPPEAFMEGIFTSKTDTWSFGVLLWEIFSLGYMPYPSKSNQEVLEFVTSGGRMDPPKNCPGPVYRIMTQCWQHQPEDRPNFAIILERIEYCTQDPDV
How it was run: (§3)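 Kinase domains (in kinase solution: ROS1-G2032R 0.5 nM, ROS1-wt 0.6 nM, TRKA 1 nM, ALK L1196M/G1202R 3 nM) were mixed with compound and a substrate solution of 2 mM ATP plus 26 μM fluorogenic AQT0101 (ALK, ROS1) or AQT0104 (TRKA) in HEPES pH 7.5/MgCl2. Fluorescence was followed for 120 min at 30° C; Ki^app was obtained by Morrison fit of initial rates.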

[2] = molecular target: T4, Ba/F3 cells EML4-ALK L1196M/G1202R (variant 1) (Homo sapiens, UniProt Q9UM73, G1202R/L1196M); test: Ba/F3 cell proliferation assay, EML4-ALK L1196M/G1202R (variant 1); assay type: cell-based; conditions: 72 hours, CellTiter-Glo
T4 construct: echinoderm microtubule-associated protein-like 4 (EML4) gene and the ALK tyrosine kinase domain; host or cells: Ba/F3 (RIKEN), retroviral pMSCV-puro; the other entry of the earlier key: EML4 (Q9HC35, Echinoderm microtubule-associated protein-like 4)
T4 sequence (Q9UM73 with tags, fused parts or gaps L1196M/G1202R): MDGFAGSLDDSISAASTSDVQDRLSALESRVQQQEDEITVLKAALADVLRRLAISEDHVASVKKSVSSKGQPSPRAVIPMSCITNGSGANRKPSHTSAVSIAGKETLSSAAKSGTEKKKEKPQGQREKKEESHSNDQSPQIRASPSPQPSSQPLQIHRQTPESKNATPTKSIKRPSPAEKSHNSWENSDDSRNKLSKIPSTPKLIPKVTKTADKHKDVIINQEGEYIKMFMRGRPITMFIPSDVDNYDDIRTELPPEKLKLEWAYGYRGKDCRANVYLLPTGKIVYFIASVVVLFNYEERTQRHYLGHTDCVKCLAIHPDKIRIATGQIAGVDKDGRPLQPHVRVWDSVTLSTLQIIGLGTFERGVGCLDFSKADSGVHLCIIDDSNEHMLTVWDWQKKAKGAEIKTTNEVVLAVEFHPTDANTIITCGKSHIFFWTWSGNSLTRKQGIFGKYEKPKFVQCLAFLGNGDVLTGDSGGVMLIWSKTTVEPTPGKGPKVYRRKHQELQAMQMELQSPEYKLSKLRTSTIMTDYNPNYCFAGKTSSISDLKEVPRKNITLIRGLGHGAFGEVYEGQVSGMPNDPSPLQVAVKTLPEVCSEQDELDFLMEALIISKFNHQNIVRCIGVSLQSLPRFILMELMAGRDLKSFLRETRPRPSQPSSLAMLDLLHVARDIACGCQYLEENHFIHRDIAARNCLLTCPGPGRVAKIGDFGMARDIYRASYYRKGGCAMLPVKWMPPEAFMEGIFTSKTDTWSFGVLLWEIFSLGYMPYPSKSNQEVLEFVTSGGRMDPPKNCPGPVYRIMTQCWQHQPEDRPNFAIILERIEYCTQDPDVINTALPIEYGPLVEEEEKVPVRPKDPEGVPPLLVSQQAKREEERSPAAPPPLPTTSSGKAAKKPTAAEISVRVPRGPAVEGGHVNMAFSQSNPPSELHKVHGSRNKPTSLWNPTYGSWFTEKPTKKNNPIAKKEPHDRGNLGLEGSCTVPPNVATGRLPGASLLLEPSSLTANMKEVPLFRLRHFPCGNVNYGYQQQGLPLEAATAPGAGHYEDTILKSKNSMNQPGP
How it was run: as §2

TRKA-wt = molecular target: T5, TRKA-wt (Homo sapiens, UniProt P04629); test: Biochemical kinase assay, TRKA-wt kinase domain; conditions: apparent inhibitory constant, Morrison equation; ATP 2 mM in substrate solution; read-out: TRKA-wt Ki^app
T5 construct: or TRKA-wt (1 nM, BPS Bio, 40280) kinase domains in buffer; purchased BPS Bio 40280
T5 sequence (P04629 510-781 limits assumed): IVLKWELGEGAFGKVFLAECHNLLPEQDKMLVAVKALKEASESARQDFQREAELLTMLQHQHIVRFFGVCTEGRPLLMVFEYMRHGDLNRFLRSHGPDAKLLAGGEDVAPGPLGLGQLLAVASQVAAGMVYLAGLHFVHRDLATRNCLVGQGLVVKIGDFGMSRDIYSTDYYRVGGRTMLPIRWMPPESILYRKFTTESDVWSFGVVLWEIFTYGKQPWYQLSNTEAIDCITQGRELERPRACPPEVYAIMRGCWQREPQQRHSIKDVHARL
How it was run: as §3

ALK-wt = molecular target: T6, ALK-wt (Homo sapiens, UniProt Q9UM73); test: Biochemical kinase assay, ALK-wt kinase domain; conditions: apparent inhibitory constant, Morrison equation; ATP 2 mM in substrate solution; read-out: ALK-wt Ki^app
T6 construct: purchased Carna 08-518
T6 sequence (Q9UM73 1116-1392 limits assumed): as the sequence (Q9UM73 1116-1392 L1196M/G1202R limits assumed) above, with M81L, R87G counted along it
How it was run: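 Apparent Ki values come from fitting initial reaction rates against inhibitor concentration to the Morrison equation. Rates were taken from the linear phase of fluorogenic substrate phosphorylation (AQT0101 for ALK and ROS1, AQT0104 for TRKA; 26 μM in substrate solution with 2 mM ATP), monitored at 485 nm over 120 min at 30° C.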

[3] = molecular target: T7, Ba/F3 cells EML4-ALK wt (variant 1) (Homo sapiens, UniProt Q9UM73); test: Ba/F3 cell proliferation assay, EML4-ALK wt (variant 1); assay type: cell-based; conditions: 72 hours, CellTiter-Glo
T7 construct: echinoderm microtubule-associated protein-like 4 (EML4) gene and the ALK tyrosine kinase domain; host or cells: Ba/F3 (RIKEN), retroviral pMSCV-puro; the other entry of the earlier key: EML4 (Q9HC35, Echinoderm microtubule-associated protein-like 4)
T7 sequence (Q9UM73 with tags, fused parts or gaps): as the sequence (Q9UM73 with tags, fused parts or gaps L1196M/G1202R) above, with M635L, R641G counted along it
How it was run: as §2

[4] = system: TPM3-NTRK1-wt IC50 / primary target IC50 (e.g. CD74-ROS1-wt); test: TRKA selectivity in Ba/F3 cells (TRKA potency divided by primary target potency); assay type: cell-based; conditions: for TPM3-NTRK1-wt/CD74-ROS1-G2032R selectivity ratio: TRKA potency / CD74-ROS1-G2032R potency; for TPM3-NTRK1-wt/CD74-ROS1-wt selectivity ratio: TRKA potency / CD74-ROS1-wt potency; for TPM3-NTRK1-wt/EML4-ALK-L1196M-G1202R selectivity ratio: TRKA potency / EML4-ALK-L1196M-G1202R potency; for TPM3-NTRK1-wt/EML4-ALK-wt selectivity ratio: TRKA potency / EML4-ALK-wt potency
Experimental: TRKA selectivity was calculated by dividing a compound's TRKA potency by its primary target potency (e.g. TPM3-NTRK1-wt IC50/CD74-ROS1-wt IC50). Compound selectivity can be interpreted by binning ratio values: bin A for very high selectivity, ratio >30-fold; bin B for high selectivity, ratio >10-fold; bin C for moderate selectivity, ratio ≥1; and bin D for low selectivity, ratio <1. […] (nd=not determined).

[5] = molecular target: T8, Ba/F3 cells CD74-ROS1 G2032R (Homo sapiens, UniProt P08922, G2032R); test: Ba/F3 cell proliferation assay, CD74-ROS1 G2032R; assay type: cell-based; conditions: 72 hours, CellTiter-Glo
T8 construct: fusion of the C-terminus of ROS1 with the N-terminus of various partner proteins; host or cells: Ba/F3 (RIKEN), retroviral pMSCV-puro; the other entry of the earlier key: CD74 (P04233, HLA class II histocompatibility antigen gamma chain)
T8 sequence (P08922 1883-2347 G2032R limits assumed): as the sequence (P08922 1883-2347 limits assumed) above, with G150R counted along it
How it was run: as §1

ROS1-G2032R = molecular target: T9, ROS1-G2032R (Homo sapiens, UniProt P08922, G2032R); test: Biochemical kinase assay, ROS1-G2032R kinase domain; conditions: apparent inhibitory constant, Morrison equation; ATP 2 mM in substrate solution; read-out: ROS1-G2032R Ki^app
T9 construct: purchased SignalChem R14-12BG
T9 sequence (P08922 1945-2222 G2032R limits assumed): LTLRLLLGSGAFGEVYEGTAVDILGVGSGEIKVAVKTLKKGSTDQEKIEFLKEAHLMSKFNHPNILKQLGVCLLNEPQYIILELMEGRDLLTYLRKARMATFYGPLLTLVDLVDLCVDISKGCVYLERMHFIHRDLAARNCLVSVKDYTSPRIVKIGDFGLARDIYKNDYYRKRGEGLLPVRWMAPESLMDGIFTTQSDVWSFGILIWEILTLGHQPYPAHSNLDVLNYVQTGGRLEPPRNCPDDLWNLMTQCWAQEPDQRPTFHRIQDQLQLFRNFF
How it was run: (§4)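 Compounds, as 100-fold DMSO stocks, were dispensed first, then substrate mix was added (ATP 2 mM, AQT0101 26 μM, in 50 mM HEPES pH 7.5/10 mM MgCl2). Reactions ran at 30 °C with fluorescence logged every 2 min over 120 min. Apparent inhibition constants came from fitting rates to Morrison's tight-binding equation.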

ROS1-wt = molecular target: T10, ROS1-wt (Homo sapiens, UniProt P08922); test: Biochemical kinase assay, ROS1-wt kinase domain; conditions: apparent inhibitory constant, Morrison equation; ATP 2 mM in substrate solution; read-out: ROS1-wt Ki^app
T10 construct: purchased Carna 08-163
T10 sequence (P08922 1945-2222 limits assumed): as the sequence (P08922 1945-2222 G2032R limits assumed) above, with R88G counted along it
How it was run: as §4

| IC50 [1] | IC50 (Ba/F3 cells TPM3-TRKA) | Ki (ALK L1196M/G1202R) | IC50 [2] | Ki (TRKA-wt) | Ki (ALK-wt) | IC50 [3] | IC50 [5] | Ki (ROS1-G2032R) | Ki (ROS1-wt) | Structure (SMILES) | TPM3-NTRK1-wt/CD74-ROS1-G2032R selectivity ratio [4] | TPM3-NTRK1-wt/CD74-ROS1-wt selectivity ratio [4] | TPM3-NTRK1-wt/EML4-ALK-L1196M-G1202R selectivity ratio [4] | TPM3-NTRK1-wt/EML4-ALK-wt selectivity ratio [4] |
| --- | --- | --- | --- | --- | --- | --- | --- | --- | --- | --- | --- | --- | --- | --- |
| 0.0001 to 0.05 µM | 0.05 to 0.5 µM | < 0.05 µM | 0.0001 to 0.05 µM | < 0.05 µM | < 0.05 µM | 0.0001 to 0.05 µM | 0.0001 to 0.05 µM | < 0.05 µM | < 0.05 µM | CCn1ncc2c1-c1cnc(N)c(c1)O[C@H](C)c1cc(F)ccc1-c1cc(Cl)nn1C2 [Example 16, (19R)-10-chloro-3-ethyl-16-fluoro-19-methyl-20-oxa-3,4,8,9,23-pentaazapentacyclo[19.3.1.0^2,^6.0^8,^12.0^13,^18]pentacosa-1(24),2(6),4,9,11,13,15,17,21(25),22-decaen-22-amine] | A (bin A for very high selectivity, ratio >30-fold) | A (bin A for very high selectivity, ratio >30-fold) | C (bin C for moderate selectivity, ratio ≥1) | B (bin B for high selectivity, ratio >10-fold) |
| 0.0001 to 0.05 µM | > 0.5 µM | 0.05 to 0.5 µM | > 0.5 µM | > 0.5 µM | < 0.05 µM | 0.05 to 0.5 µM | 0.05 to 0.5 µM | 0.05 to 0.5 µM | < 0.05 µM | C[C@H]1Oc2cc(cnc2N)-c2c(C#N)ncn2Cc2ncncc2-c2ccc(F)cc21 [Example 18, (20R)-23-amino-17-fluoro-20-methyl-21-oxa-4,6,9,11,24-pentaazapentacyclo[20.3.1.0^2,^6.0^8,^13.0^14,^19]hexacosa-1(25),2,4,8(13),9,11,14,16,18,22(26),23-undecaene-3-carbonitrile] | A (bin A for very high selectivity, ratio >30-fold) | A (bin A for very high selectivity, ratio >30-fold) | C (bin C for moderate selectivity, ratio ≥1) | A (bin A for very high selectivity, ratio >30-fold) |
| 0.0001 to 0.05 µM | > 0.5 µM | < 0.05 µM | 0.0001 to 0.05 µM | > 0.5 µM | < 0.05 µM | 0.0001 to 0.05 µM | 0.0001 to 0.05 µM | < 0.05 µM | < 0.05 µM | C[C@H]1Oc2cc(cnc2N)-c2c(C#N)ncn2Cc2ncccc2-c2ccc(F)cc21 [Example 19, (20R)-23-amino-17-fluoro-20-methyl-21-oxa-4,6,9,24-tetraazapentacyclo[20.3.1.0^3,^6.0^8,^13.0^14,^19]hexacosa-1(25),2,4,8(13),9,11,14,16,18,22(26),23-undecaene-3-carbonitrile] | A (bin A for very high selectivity, ratio >30-fold) | A (bin A for very high selectivity, ratio >30-fold) | A (bin A for very high selectivity, ratio >30-fold) | A (bin A for very high selectivity, ratio >30-fold) |
| 0.0001 to 0.05 µM | > 0.5 µM | 0.05 to 0.5 µM | > 0.5 µM | > 0.5 µM | < 0.05 µM | 0.05 to 0.5 µM | 0.05 to 0.5 µM | 0.05 to 0.5 µM | < 0.05 µM | C[C@H]1Oc2cc(cnc2N)-c2c(C#N)noc2Cn2nccc2-c2ccc(F)cc21 [Example 20, (19R)-22-amino-16-fluoro-19-methyl-5,20-dioxa-4,8,9,23-tetraazapentacyclo[19.3.1.0^2,^6.0^8,^12.0^13,^18]pentacosa-1(24),2(6),3,9,11,13(18), 4,16,21 (25),22-decaene-3-carbonitrile] | A (bin A for very high selectivity, ratio >30-fold) | A (bin A for very high selectivity, ratio >30-fold) | C (bin C for moderate selectivity, ratio ≥1) | A (bin A for very high selectivity, ratio >30-fold) |
| 0.0001 to 0.05 µM | 0.05 to 0.5 µM | < 0.05 µM | 0.05 to 0.5 µM | 0.05 to 0.5 µM | < 0.05 µM | 0.0001 to 0.05 µM | 0.0001 to 0.05 µM | < 0.05 µM | < 0.05 µM | CCc1noc2c1-c1cnc(N)c(c1)O[C@H](C)c1cc(F)ccc1-c1ccnn1C2 [Example 21, (19R)-3-ethyl-16-fluoro-19-methyl-5,20-dioxa-4,8,9,23-tetraazapentacyclo[19.3.1.0^2,^6.0^8,^12.0^13,^18]pentacosa-1(24),2(6),3,9,11,13,15,17,21 (25),22-decaen-22-amine] | B (bin B for high selectivity, ratio >10-fold) | A (bin A for very high selectivity, ratio >30-fold) | C (bin C for moderate selectivity, ratio ≥1) | A (bin A for very high selectivity, ratio >30-fold) |
| 0.0001 to 0.05 µM | 0.05 to 0.5 µM | < 0.05 µM | 0.05 to 0.5 µM | 0.05 to 0.5 µM | < 0.05 µM | 0.0001 to 0.05 µM | 0.0001 to 0.05 µM | < 0.05 µM | < 0.05 µM | CCc1noc2c1-c1cnc(N)c(c1)O[C@H](C)c1cc(F)ccc1-c1nn(C)nc1C2 [Example 22, (19R)-3-ethyl-16-fluoro-10,19-dimethyl-5,20-dioxa-4,9,10,11,23-pentaazapentacyclo[19.3.1.0^2,^6.0^8,^12.0^13,^18]pentacosa-1(24),2(6),3,8,11,13,15,17,21(25),22-decaen-22-amine] | A (bin A for very high selectivity, ratio >30-fold) | A (bin A for very high selectivity, ratio >30-fold) | C (bin C for moderate selectivity, ratio ≥1) | B (bin B for high selectivity, ratio >10-fold) |
